Source: PubChem BioAssay (NCI)
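Growth conditions: 96-well plates. Treatment: test compound, 48 hours, 5 concentrations. Analysis: linear interpolation between bracketing concentrations; unreached endpoints set to highest concentration. GI50 is the concentration that inhibits growth by half. TGI: total growth inhibition.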

Columns and labels:
Assay in all cases: inhibition of tumour cell growth, NCI panel, 48 h; in the data active means GI50 below about 0.43 µM; inactive means the rest
NCI-H23 lung = system: NCI-H23 lung
SNB-75 CNS = system: SNB-75 CNS
HCT-116 colon = system: HCT-116 colon
NCI/ADR-RES ovarian = system: NCI/ADR-RES ovarian
BT-549 breast = system: BT-549 breast
TK-10 renal = system: TK-10 renal
KM12 colon = system: KM12 colon
RPMI-8226 leukemia = system: RPMI-8226 leukemia
SK-MEL-2 melanoma = system: SK-MEL-2 melanoma
HL-60(TB) leukemia = system: HL-60(TB) leukemia
ACHN renal = system: ACHN renal
HCT-15 colon = system: HCT-15 colon
MCF7 breast = system: MCF7 breast
OVCAR-8 ovarian = system: OVCAR-8 ovarian
COLO 205 colon = system: COLO 205 colon
HT29 colon = system: HT29 colon
SF-295 CNS = system: SF-295 CNS
U251 CNS = system: U251 CNS
NCI-H522 lung = system: NCI-H522 lung
SN12C renal = system: SN12C renal
SK-MEL-28 melanoma = system: SK-MEL-28 melanoma
SK-MEL-5 melanoma = system: SK-MEL-5 melanoma
UACC-257 melanoma = system: UACC-257 melanoma
OVCAR-4 ovarian = system: OVCAR-4 ovarian
NCI-H460 lung = system: NCI-H460 lung
T-47D breast = system: T-47D breast
LOX IMVI melanoma = system: LOX IMVI melanoma
SR leukemia = system: SR leukemia
SF-268 CNS = system: SF-268 CNS
M14 melanoma = system: M14 melanoma
HCC-2998 colon = system: HCC-2998 colon
SK-OV-3 ovarian = system: SK-OV-3 ovarian
SW-620 colon = system: SW-620 colon
K-562 leukemia = system: K-562 leukemia
CAKI-1 renal = system: CAKI-1 renal
MDA-MB-231 breast = system: MDA-MB-231 breast
SNB-19 CNS = system: SNB-19 CNS
A549 NSCLC = system: A549 NSCLC
UACC-62 melanoma = system: UACC-62 melanoma
OVCAR-5 ovarian = system: OVCAR-5 ovarian
UO-31 renal = system: UO-31 renal
HOP-62 NSCLC = system: HOP-62 NSCLC
NCI-H226 lung = system: NCI-H226 lung
786-0 renal = system: 786-0 renal
PC-3 prostate = system: PC-3 prostate
MALME-3M melanoma = system: MALME-3M melanoma
DU-145 prostate = system: DU-145 prostate
MOLT-4 leukemia = system: MOLT-4 leukemia
IGROV1 ovarian = system: IGROV1 ovarian
OVCAR-3 ovarian = system: OVCAR-3 ovarian
EKVX NSCLC = system: EKVX NSCLC
SF-539 CNS = system: SF-539 CNS
RXF 393 renal = system: RXF 393 renal
HS 578T breast = system: HS 578T breast
HOP-92 NSCLC = system: HOP-92 NSCLC
CCRF-CEM leukemia = system: CCRF-CEM leukemia
MDA-MB-435 = system: MDA-MB-435
A498 renal = system: A498 renal

CCOC(=O)C1=CCCC[C@H]1S(=O)(=O)Nc1ccc(F)cc1Cl
72.7 µM: TGI (UACC-62 melanoma)
24.5 µM: TGI (SK-MEL-5 melanoma)
61.9 µM: TGI (RXF 393 renal)
47.9 µM: TGI (HL-60(TB) leukemia)
90.1 µM: TGI (NCI-H522 lung)
77.3 µM: TGI (OVCAR-3 ovarian)
85.2 µM: TGI (MALME-3M melanoma)
> 100 µM: TGI (NCI-H23 lung) | TGI (SNB-75 CNS) | TGI (NCI/ADR-RES ovarian) | TGI (TK-10 renal) | TGI (KM12 colon) | TGI (ACHN renal) | TGI (HCT-15 colon) | TGI (MCF7 breast) | TGI (OVCAR-8 ovarian) | TGI (COLO 205 colon) | TGI (HT29 colon) | TGI (SF-295 CNS) | TGI (U251 CNS) | TGI (SK-MEL-28 melanoma) | TGI (UACC-257 melanoma) | TGI (OVCAR-4 ovarian) | TGI (T-47D breast) | TGI (LOX IMVI melanoma) | TGI (SR leukemia) | TGI (SF-268 CNS) | TGI (HCC-2998 colon) | TGI (SK-OV-3 ovarian) | TGI (SW-620 colon) | TGI (K-562 leukemia) | TGI (CAKI-1 renal) | TGI (SNB-19 CNS) | TGI (A549 NSCLC) | TGI (UO-31 renal) | TGI (HOP-62 NSCLC) | TGI (NCI-H226 lung) | TGI (786-0 renal) | TGI (PC-3 prostate) | TGI (DU-145 prostate) | TGI (IGROV1 ovarian) | TGI (EKVX NSCLC) | TGI (A498 renal)
89.3 µM: TGI (HS 578T breast)
58.3 µM: TGI (HOP-92 NSCLC)
96.7 µM: TGI (M14 melanoma)
67.6 µM: TGI (RPMI-8226 leukemia)
83.8 µM: TGI (SK-MEL-2 melanoma)
94.5 µM: TGI (SN12C renal)
98.6 µM: TGI (MDA-MB-231 breast)
82.1 µM: TGI (NCI-H460 lung)
77.1 µM: TGI (OVCAR-5 ovarian)
69.9 µM: TGI (MDA-MB-435)
61 µM: TGI (BT-549 breast)
55.2 µM: TGI (SF-539 CNS)
95.3 µM: TGI (HCT-116 colon)
84.9 µM: TGI (CCRF-CEM leukemia)
inactive: GI50 (NCI-H23 lung) 26.6 µM | GI50 (SNB-75 CNS) 25.1 µM | GI50 (HCT-116 colon) 25 µM | GI50 (NCI/ADR-RES ovarian) 33.9 µM | GI50 (BT-549 breast) 19.6 µM | GI50 (TK-10 renal) 33 µM | GI50 (KM12 colon) 27.1 µM | GI50 (RPMI-8226 leukemia) 20.5 µM | GI50 (SK-MEL-2 melanoma) 21 µM | GI50 (HL-60(TB) leukemia) 15.7 µM | GI50 (ACHN renal) 29 µM | GI50 (HCT-15 colon) 20.3 µM | GI50 (MCF7 breast) 19.9 µM | GI50 (OVCAR-8 ovarian) 27.9 µM | GI50 (COLO 205 colon) 38.2 µM | GI50 (HT29 colon) 41.1 µM | GI50 (SF-295 CNS) 32.7 µM | GI50 (U251 CNS) 24.7 µM | GI50 (NCI-H522 lung) 23.1 µM | GI50 (SN12C renal) 24.5 µM | GI50 (SK-MEL-28 melanoma) 28 µM | GI50 (SK-MEL-5 melanoma) 10.5 µM | GI50 (UACC-257 melanoma) 35.8 µM | GI50 (OVCAR-4 ovarian) 31.2 µM | GI50 (NCI-H460 lung) 22.4 µM | GI50 (T-47D breast) 16.6 µM | GI50 (LOX IMVI melanoma) 22.7 µM | GI50 (SR leukemia) 23.9 µM | GI50 (SF-268 CNS) 24.6 µM | GI50 (M14 melanoma) 25.5 µM | GI50 (HCC-2998 colon) 31.2 µM | GI50 (SK-OV-3 ovarian) 47.6 µM | GI50 (SW-620 colon) 30 µM | GI50 (K-562 leukemia) 26.4 µM | GI50 (CAKI-1 renal) 31.5 µM | GI50 (MDA-MB-231 breast) 28.4 µM | GI50 (SNB-19 CNS) 29.4 µM | GI50 (A549 NSCLC) 35.4 µM | GI50 (UACC-62 melanoma) 19.1 µM | GI50 (OVCAR-5 ovarian) 25 µM | GI50 (UO-31 renal) 20.8 µM | GI50 (HOP-62 NSCLC) 25.5 µM | GI50 (NCI-H226 lung) 26.7 µM | GI50 (786-0 renal) 32.9 µM | GI50 (PC-3 prostate) 34 µM | GI50 (MALME-3M melanoma) 24.4 µM | GI50 (DU-145 prostate) 25.4 µM | GI50 (MOLT-4 leukemia) 27.3 µM | GI50 (IGROV1 ovarian) 31 µM | GI50 (OVCAR-3 ovarian) 23.2 µM | GI50 (EKVX NSCLC) 26.8 µM | GI50 (SF-539 CNS) 22.8 µM | GI50 (RXF 393 renal) 13.2 µM | GI50 (HS 578T breast) 20.3 µM | GI50 (HOP-92 NSCLC) 15.1 µM | GI50 (CCRF-CEM leukemia) 21.4 µM | GI50 (MDA-MB-435) 21.1 µM | GI50 (A498 renal) 42.6 µM
92.2 µM: TGI (MOLT-4 leukemia)
